Laboratory results: PubChem BioAssay AID330 (DTP/NCI, 2004)
“And” between values parts separate entries of the source, which are not always exact repeats. Equal entries are not always repeated. Inconclusive results and toxic doses are left out.

System: P388 leukemia ip, CD2F1 mice, survival T/C
Test: NCI In Vivo Anticancer Drug Screen. Data for tumor model P388 Leukemia (intraperitoneal) in CD2F1 (CDF1) mice
Conditions: endpoint: median survival time, higher = longer survival
In short: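 Mice carrying the transplanted tumor received test compound or vehicle. Survival was recorded in each group, and the value is the treated-group measurement divided by that of the vehicle-treated control group.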

[1] = dose: 200.0 mg/kg/injection, schedule: Q01DX009 (ip), vehicle: saline
[2] = dose: 50.0 mg/kg/injection, schedule: Q01DX005 (ip), vehicle: saline with Tween-80
[3] = dose: 100.0 mg/kg/injection, schedule: Q01DX005 (ip), vehicle: saline with Tween-80
[4] = dose: 50.0 mg/kg/injection, schedule: Q01DX005 (ip), vehicle: Klucel (hydroxypropylcellulose) (HPC)
[5] = dose: 100.0 mg/kg/injection, schedule: Q01DX005 (ip), vehicle: Klucel (hydroxypropylcellulose) (HPC)
[6] = dose: 50.0 mg/kg/injection, schedule: Q01DX009 (ip), vehicle: Klucel (hydroxypropylcellulose) (HPC)
[7] = dose: 100.0 mg/kg/injection, schedule: Q01DX009 (ip), vehicle: Klucel (hydroxypropylcellulose) (HPC)
[8] = dose: 200.0 mg/kg/injection, schedule: Q01DX009 (ip), vehicle: Klucel (hydroxypropylcellulose) (HPC)
[9] = dose: 100.0 mg/kg/injection, schedule: Q04DX002 (ip), vehicle: saline with Tween-80
[10] = dose: 200.0 mg/kg/injection, schedule: Q04DX002 (ip), vehicle: saline with Tween-80
[11] = dose: 50.0 mg/kg/injection, schedule: Q01DX009 (ip), vehicle: saline with Tween-80
[12] = dose: 100.0 mg/kg/injection, schedule: Q01DX009 (ip), vehicle: saline with Tween-80

In the case of `Cc1c2cc[n+](C[n+]3ccc4c(C)c5[nH]c6ccccc6c5c(C)c4c3)cc2c(C)c2c1[nH]c1ccccc12`, the T/C (dose: 12.5 mg/kg/injection, schedule: Q04DX002 (ip), vehicle: DMSO) is reported as 107 % of control, the T/C (dose: 25.0 mg/kg/injection, schedule: Q04DX002 (ip), vehicle: DMSO) is reported as 111 % of control and the T/C (dose: 50.0 mg/kg/injection, schedule: Q04DX002 (ip), vehicle: DMSO) is reported as 115 % of control. The T/C (dose: 100.0 mg/kg/injection, schedule: Q04DX002 (ip), vehicle: DMSO) was 121 % of control.
For `NC(=O)NO`, the T/C (dose: 112.0 mg/kg/injection, schedule: Q03HX024 (ip), vehicle: saline) was 83 % of control, the T/C [1] was 160 % of control and the T/C (dose: 300.0 mg/kg/injection, schedule: Q01DX009 (ip), vehicle: saline) was 185 % of control. For the same compound, the T/C (dose: 450.0 mg/kg/injection, schedule: Q01DX009 (ip), vehicle: saline) was 160 % of control and 184 % of control, the T/C (dose: 500.0 mg/kg/injection, schedule: Q01DX009 (ip), vehicle: saline) was 200 % of control and the T/C (dose: 750.0 mg/kg/injection, schedule: Q01DX009 (ip), vehicle: saline) was 100 % of control and 98 % of control. For the same compound, the T/C (dose: 2000.0 mg/kg/injection, schedule: Q01DX001 (ip), vehicle: saline) was 98 % of control.
With `COc1cccc(/C=C(\NC(=O)c2ccccc2)c2nc3ccccc3s2)c1` the T/C [2] was 110 % of control, the T/C [3] was 116 % of control and the T/C (dose: 240.0 mg/kg/injection, schedule: Q01DX005 (ip), vehicle: saline with Tween-80) was 116 % of control.
For `COc1ccccc1[B-]12OCC[N+]1(CNC(=O)C1=C(O)C3(O)C(=O)C4=C(O)c5c(O)cccc5C(C)(O)C4CC3C(N(C)C)C1=O)CCO2` (stereo not drawn), the T/C [4] was 105 % of control, the T/C [5] was 108 % of control and the T/C (dose: 200.0 mg/kg/injection, schedule: Q01DX005 (ip), vehicle: Klucel (hydroxypropylcellulose) (HPC)) was 112 % of control.
With `N#CCCSC(=S)N1CCCCC1` the T/C (dose: 25.0 mg/kg/injection, schedule: Q01DX009 (ip), vehicle: Klucel (hydroxypropylcellulose) (HPC)) was 104 % of control, the T/C [6] was 104 % of control and 87 % of control and the T/C [7] was 98 % of control and 101 % of control. For the same compound, the T/C [8] was 90 % of control and 93 % of control and the T/C (dose: 400.0 mg/kg/injection, schedule: Q01DX009 (ip), vehicle: Klucel (hydroxypropylcellulose) (HPC)) was 101 % of control.
For `Cc1nccc(N[N+](=O)[O-])c1C`, the T/C (dose: 12.5 mg/kg/injection, schedule: Q01DX009 (ip), vehicle: other) was 100 % of control, the T/C (dose: 25.0 mg/kg/injection, schedule: Q01DX009 (ip), vehicle: other) was 93 % of control and the T/C (dose: 50.0 mg/kg/injection, schedule: Q01DX009 (ip), vehicle: other) was 117 % of control. For the same compound, the T/C (dose: 100.0 mg/kg/injection, schedule: Q01DX009 (ip), vehicle: other) was 100 % of control and the T/C (dose: 200.0 mg/kg/injection, schedule: Q01DX009 (ip), vehicle: other) was 103 % of control.
For `NP(=O)(OCCC(=O)c1ccccc1)N(CCCl)CCCl` (stereo not drawn), the T/C (dose: 25.0 mg/kg/injection, schedule: Q04DX002 (ip), vehicle: saline with Tween-80) was 163 % of control, the T/C (dose: 50.0 mg/kg/injection, schedule: Q04DX002 (ip), vehicle: saline with Tween-80) was 223 % of control and the T/C [9] was 221 % of control and 92 % of control. The T/C [10] was 89 % of control.
For `CSc1ccc(NC(=S)SC(C)C)cc1Cl`, the T/C (dose: 50.0 mg/kg/injection, schedule: Q01DX009 (ip), vehicle: saline) was 97 % of control, the T/C (dose: 100.0 mg/kg/injection, schedule: Q01DX009 (ip), vehicle: saline) was 97 % of control and the T/C [1] was 102 % of control.
In the case of `CCCCOP(O)(=S)OCCCC.[Tb]`, the T/C [9] is reported as 100 % of control, the T/C [10] is reported as 96 % of control and the T/C (dose: 400.0 mg/kg/injection, schedule: Q04DX002 (ip), vehicle: saline with Tween-80) is reported as 95 % of control.
For `O=C1/C(=C\c2ccccc2)C2OCC=C3CN4CCC56c7ccccc7N1C5C2C3CC46` (stereo not drawn), the T/C (dose: 7.5 mg/kg/injection, schedule: Q01DX005 (ip), vehicle: saline with Tween-80) was 106 % of control, the T/C (dose: 15.0 mg/kg/injection, schedule: Q01DX005 (ip), vehicle: saline with Tween-80) was 108 % of control and the T/C (dose: 30.0 mg/kg/injection, schedule: Q01DX005 (ip), vehicle: saline with Tween-80) was 99 % of control.
`COC1/C=C/OC2(C)Oc3c(C)c(O)c4c(O)c(c(/C=N/N(C)C(C)C(O)c5ccccc5)c(O)c4c3C2=O)NC(=O)C(C)=C/C=C/C(C)C(O)C(C)C(O)C(C)C(OC(C)=O)C1C` (stereo not drawn) was tested, and the T/C (dose: 12.5 mg/kg/injection, schedule: Q01DX009 (ip), vehicle: saline with Tween-80) was 120 % of control, the T/C (dose: 25.0 mg/kg/injection, schedule: Q01DX009 (ip), vehicle: saline with Tween-80) was 116 % of control and the T/C [11] was 109 % of control and 116 % of control. For the same compound, the T/C [12] was 111 % of control.
With `CC(=O)Oc1cc(C)cc2ccc(-c3ccc4cc(C)cc(OC(C)=O)c4c3OC(C)=O)c(OC(C)=O)c12` the T/C [6] was 96 % of control, the T/C [7] was 96 % of control and the T/C [8] was 96 % of control.
For `C#Cc1cccc(N=Cc2cc(Cl)cc(Br)c2O)c1`, the T/C [2] was 105 % of control, the T/C [3] was 102 % of control and the T/C (dose: 200.0 mg/kg/injection, schedule: Q01DX005 (ip), vehicle: saline with Tween-80) was 107 % of control.
With `O=C(O)C(Cc1cccs1)NC(=O)C(F)(F)F` (stereo not drawn) the T/C (dose: 50.0 mg/kg/injection, schedule: Q01DX009 (ip), vehicle: saline + alcohol) was 99 % of control, the T/C (dose: 100.0 mg/kg/injection, schedule: Q01DX009 (ip), vehicle: saline + alcohol) was 93 % of control and the T/C (dose: 200.0 mg/kg/injection, schedule: Q01DX009 (ip), vehicle: saline + alcohol) was 92 % of control.
With `COC1/C=C/OC2(C)Oc3c(C)c(O)c4c(c3C2=O)C(=O)C=C(NC(=O)/C(C)=C\C=C\C(C)C2OC(C)(C)OC(C2C)C(C)C(OC(C)=O)C1C)C4=O` (stereo not drawn) the T/C [11] was 106 % of control, the T/C [12] was 113 % of control and the T/C (dose: 200.0 mg/kg/injection, schedule: Q01DX009 (ip), vehicle: saline with Tween-80) was 117 % of control.
`CSc1ccccc1[As](c1ccccc1)c1ccccc1SC` was tested, and the T/C [6] was 90 % of control, the T/C [7] was 92 % of control and the T/C [8] was 95 % of control.
For `Cc1ccc(OP(=O)(Oc2ccc(C)cc2)Oc2ccc(C)cc2)cc1.Cc1ccc(OP(=O)(Oc2ccc(C)cc2)Oc2ccc(C)cc2)cc1.[Cl][Cu][Cl]`, the T/C (dose: 12.5 mg/kg/injection, schedule: Q04DX003 (ip), vehicle: Klucel (hydroxypropylcellulose) (HPC)) was 99 % of control, the T/C (dose: 25.0 mg/kg/injection, schedule: Q04DX003 (ip), vehicle: Klucel (hydroxypropylcellulose) (HPC)) was 96 % of control and the T/C (dose: 50.0 mg/kg/injection, schedule: Q04DX003 (ip), vehicle: Klucel (hydroxypropylcellulose) (HPC)) was 99 % of control.
With `COc1ccc(S(=O)(=O)N/N=C/c2ncc[nH]2)cc1` the T/C (dose: 25.0 mg/kg/injection, schedule: Q01DX005 (ip), vehicle: saline with Tween-80) was 99 % of control, the T/C [2] was 99 % of control and the T/C [3] was 100 % of control.
In the case of `O=C(Cn1nnc(N2CCCCC2)n1)N/N=C/c1ccccc1O`, the T/C (dose: 30.0 mg/kg/injection, schedule: Q01DX005 (ip), vehicle: Klucel (hydroxypropylcellulose) (HPC)) is reported as 88 % of control, the T/C (dose: 120.0 mg/kg/injection, schedule: Q01DX005 (ip), vehicle: Klucel (hydroxypropylcellulose) (HPC)) is reported as 95 % of control and the T/C (dose: 240.0 mg/kg/injection, schedule: Q01DX005 (ip), vehicle: Klucel (hydroxypropylcellulose) (HPC)) is reported as 95 % of control.
With `Cc1cccc(C)c1-n1c(C)nc2c(c(C)c(C)n2-c2ccccc2)c1=N` the T/C [4] was 101 % of control and the T/C [5] was 94 % of control.
With `CCCCCCCCCCCC(=O)NCC(=O)NC1CC(OC2CC(O)(C(C)=O)Cc3c(O)c4c(c(O)c32)C(=O)c2c(OC)cccc2C4=O)OC(C)C1O` (stereo not drawn) the T/C (dose: 0.75 mg/kg/injection, schedule: Q01DX009 (ip), vehicle: other) was 107 % of control, the T/C (dose: 1.5 mg/kg/injection, schedule: Q01DX009 (ip), vehicle: other) was 108 % of control and the T/C (dose: 3.0 mg/kg/injection, schedule: Q01DX009 (ip), vehicle: other) was 112 % of control. For the same compound, the T/C (dose: 6.0 mg/kg/injection, schedule: Q01DX009 (ip), vehicle: other) was 116 % of control and the T/C (dose: 12.0 mg/kg/injection, schedule: Q01DX009 (ip), vehicle: other) was 99 % of control.
For `CCOC(=O)/C=C/C(CO)OC(/C=C/C(=O)OCC)n1cnc2c(N)ncnc21` (stereo not drawn), the T/C (dose: 100.0 mg/kg/injection, schedule: Q04DX002 (ip), vehicle: Klucel (hydroxypropylcellulose) (HPC)) was 101 % of control, the T/C (dose: 200.0 mg/kg/injection, schedule: Q04DX002 (ip), vehicle: Klucel (hydroxypropylcellulose) (HPC)) was 108 % of control and the T/C (dose: 400.0 mg/kg/injection, schedule: Q04DX002 (ip), vehicle: Klucel (hydroxypropylcellulose) (HPC)) was 111 % of control.
